This note sets out measurements from patent publication US20050043289A1, “Crystalline hydrochloride of 7-(((5-amino-1,2,4-thiadiazol-3-yl) (fluoromethoxyimino)acetyl)amino)-3-((imino-1-piperazinylmethyl)methylhydrazono)-methyl-3-cephem-4-carboxylic acid” (priority 2002, published 2005).

Data set [1] is described as follows: storage stability in solid form. The note with it: e.g. at 5° C. It counts as physicochemical.
Data set [2] in a line: stability in aqueous solution. Format: physicochemical. Conditions: pH values of 3-5, 5° C.
Data set [3] can be described thus: solubility in water. It counts as physicochemical. An excerpt:
Thus, a compound of the present invention is appropriate for pharmaceutical administration.

A short description of data set [4]: water uptake in presence of environmental moisture (stress test) / water content constancy. The note with it: Karl Fischer, over 6 weeks. Format: physicochemical. The source says: A monohydrochloride, produced according to the present invention, may be obtained in the form of a trihydrate, which, after appropriate drying, has a water content of ca. 7% to 10%, such as 7.3% to 9.6% (theory: 8.2%). The monohydrochloride in the form of a trihydrate may be dried, e.g. over P2O5, to a water content of 1.5%. […] The chloride content of the monohydrochloride in the form of a trihydrate is between 5% and 6% (theory: 5.5%).
Water content (Karl Fischer): 9.6%. […] HCl (titration): 5.5%. Isopropanol-content: 0.05%. Content of a compound of formula I (based on the free base): […]. pH and [β]^20D of a 1% solution in water: pH: 4.3; [β]^20589=−167±1°

Data set [5] has as its system Enterococcus faecalis. In words: MIC, Agar Dilution Test and/or Micro Dilution Test (NCCLS). It counts as cell-based. The note with it: against Enterococcus faecalis. The source says: (§1) In particular, the compounds of the present invention show antimicrobial, e.g. antibacterial activity against aerobic and anaerobic growing bacteria, e.g. gram negative and gram positive bacteria such as Enterobacter, e.g. Enterobacter cloacae; Enterococcus, e.g. Enterococcus faecalis; Moraxella, e.g. Moraxella catarrhalis; Haemophilus, e.g. Haemophilus influenza; Klebsiella, e.g. Klebsiella edwardsii, Klebsiella pneumoniae; Streptococcus, e.g. Streptococcus pyogenes; Staphylococcus, e.g. Staphylococcus aureus MSSA (methicillin sensitive strains); Staphylococcus aureus MRSA (methicillin resistant strains); Escherichia coli; Proteus, e.g. Proteus mirabilis; Salmonella, e.g. Salmonella typhimurium; Serratia, e.g. Serratia marcescens; Pneumococci, e.g. Streptococcus pneumoniae (penicillin resistant and multi-drug resistant strains); in vitro in the Agar Dilution Test and/or Micro Dilution Test for bacteria according to National Committee for Clinical Laboratory Standards (NCCLS) 1993, • Document M7-A3, Vol. 13, No.25: “Methods for dilution Antimicrobial Susceptibility Tests for Bacteria that Grow Aerobically”—Third Edition, Approved Standard”; and • Document M11 -A3 for anaerobic bacteria in a concentration from about 0.001 to about […] (MIC), e.g. using strains including Staphylococcus aureus (ATCC 29213 and ATCC 9144); Enterococcus faecalis (ATCC 29212); Haemophilus influenza (NTCC 49247 and NCTC 11931); Escherichia coli (ATCC 25922 and ATCC 35218); Klebsiella pneumoniae (NCTC 11228); Klebsiella edwardsii (NCTC 10896); and in vivo in the septicaemia mouse model, in accordance to the method description Nr. […] E.g., mice are infected with an ED 95% of Staphylococcus aureus (ATCC 4995), Streptococcus pyogenes (ATCC 29218), Escherichia coli (Δ 12 NFI culture collection) and are treated 1.5 and 24 hours after infection. The ED 50% values ranging form ca. 0.2 to 50 mg/kg body weight are calculated by Probit analysis of the administered dosages of compounds. Activity is determined by numbers of surviving animals per group of 8 mice per dosage unit day 5 after infection. The compounds of the invention show an surprising overall activity spectrum.
Background: In agar dilution, organisms are placed on agar that contains the substance at set levels.

For data set [6], the system named is Staphylococcus aureus (MSSA). The description is as above. It counts as cell-based. The note with it: against Staphylococcus aureus (MSSA).
Source text: as §1

The test system of data set [7] is methicillin resistant Staphylococcus aureus. Described as above. Format: cell-based. The note with it: against methicillin resistant Staphylococcus aureus.
Source text: as §1

In data set [8] the test system is multi-drug resistant Pneumococcus. Described as above. Conditions: Streptococcus pneumoniae; against multi-drug resistant Pneumococcus. Format: cell-based.
Source text: as §1

The test system of data set [9] is Enterobacter cloacae. Described as above. Format: cell-based. Conditions: against Enterobacter cloacae.

≈ marks a conversion by molar mass, not a printed value. Where a name gives a salt, the structure may show the parent alone. Read-outs that look alike come from different tables or passages of the source. A value given as a limit tells only on which side of the number the result lay.

Usually MIC stands for the lowest concentration found to suppress growth. A lower MIC goes with a more susceptible organism.

`CN(/N=C/C1=C(C(=O)O)N2C(=O)[C@@H](NC(=O)/C(=N\OCF)c3nsc(N)n3)C2SC1)C(=N)N1CCNCC1` (stereo partly shown): the “storage time with practically no or only slight decomposition” value in data set [1] is on record as “at least 4 weeks”. In [2], the “stability in aqueous solution” value is on record as “remains stable for at least one week”. Moreover, the solubility in data set [3] (in water at 5°C.) is ≥ 2 % (w/v); in data set [3] (in water at room temperature, read-out: solubility), around 100 mg/mL (≈ 176 mM).
For the compound `CN(/N=C/C1=C(C(=O)O)N2C(=O)[C@@H](NC(=O)/C(=N\OCF)c3nsc(N)n3)C2SC1)C(=N)N1CCNCC1` (stereo partly shown) [Example 2, 7-{[(5-amino-1,2,4-thiadiazol-3-yl)-(Z)-(fluoromethoxyimino)acetyl]amino}-3-[(imino-1-piperazinylmethyl)methylhydrazono]-methyl-3-cephem-4-carboxylic acid in the form of a monohydrochloride and in the form of a trihydrate], the water content constancy entry in [4] is “Water content constant (±6%) over 6 weeks”. For the same compound, the minimum inhibitory concentration (MIC) lay in the range of 0.1 to 0.8 µg/mL in data set [5]; 0.2 to 0.8 µg/mL in [6]; 0.8 to 12.6 µg/mL in data set [7]; 0.4 to 0.8 µg/mL in data set [8]; 0.025 to 12.8 µg/mL in data set [9].
